Here are results for three molecules from patent publication US20090062403A1, “Compositions and Methods for Treatment of Disorders of Protein Aggregation” (priority 2004, published 2009).

Experiment [1] concerns TgCRND8 mice. The experiment can be described thus: Morris Water Maze spatial reference memory test in TgCRND8 mice. It is filed as in vivo, mouse. The conditions noted are these: TgCRND8 mice, oral treatment for 28 days from 5 months of age, tested at 6 months.
A further experiment concerns the target T1, Aβ (Homo sapiens, UniProt P05067).
T1 construct: neurotoxic oligomeric/protofibrillar aggregates of amyloid β-peptide (Aβ)
The conditions noted are these: reference [16]; cited from earlier work.

Experiment [2] relates to TgCRND8 mice. Briefly: Pilot in vivo studies. Details: species or system mouse. The conditions noted are these: data not shown. The source says:
The TgCRND8 mice and non-transgenic littermates were assigned to sex- and age-matched cohorts that were then used to test the effectiveness of the cyclohexanehexol stereoisomers as a therapeutic (with treatment delayed until five months of age and continued for one month until six months of age). […] The endpoints were cognitive function, brain Aβ levels, and neuropathology. […] Over the course of these experiments, observers were unaware of genotype or treatment group.

Another experiment deals with Aβ oligomers. The conditions noted are these: positive control, previously shown; cited from earlier work.

T1 sequence (P05067 672-713 limits assumed): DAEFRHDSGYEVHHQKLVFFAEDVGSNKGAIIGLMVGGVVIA

Turning to `OC1C(O)C(O)C(O)C(O)C1O` (stereo not drawn) [Epi-cyclohexanehexol, 1,2,3,4,5/6-(epi-) cyclohexanehexol, reference compound], in the experiment with TgCRND8 mice [1], the “Spatial learning performance (Morris Water Maze) compared to untreated TgCRND8 littermates” value was “not significantly different from that of untreated TgCRND8 littermates”.

Regarding `O[C@H]1[C@H](O)[C@@H](O)[C@H](O)[C@@H](O)[C@H]1O` [myo-cyclohexanehexol, 1,2,3,5/4,6-(myo-)cyclohexanehexol], at Aβ, the “effectiveness in prior in vitro studies” value is “only weakly effective”. In addition, the “benefit in pilot in vivo studies” value in the experiment on TgCRND8 mice [2] is recorded as “no significant benefit”.

`Oc1cccc(Nc2ccc(Nc3cccc(O)c3)nn2)c1` [RS0406]: the “production of oligomers when added pre-cond” value with Aβ oligomers was “reduces the production of oligomers”.
